US20040022667A1 (priority 2001, published 2004)

What was measured:
anthrax spores = format: cell-based, Bacillus anthracis; settings: ~50 ppm (approx. 50 mg/liter) pure ClO2 in water
[1] = 20° C.; cited from earlier work

Chlorine dioxide
time to substantially destroy anthrax spores (anthrax spores): less than 1 min

O=O [oxygen]
solubility per liter of water [1]: 9.2 mg
